Reference: US12048705B2, “Immunoablative therapies” (AVM Biotechnology, LLC, priority 2018, dated 2024)
Several values for one entry are separate records, joined by “and”; a condition that tells them apart may be missing. Identical values can stand only once. Like-named read-outs stand apart in the source and are kept apart here. Marks after values point to notes of the source that are not given here.

What was measured:
[1] = system: lymphocytes, neutrophils; experiment: Rat complete blood count 48 hours after IV or PO dexamethasone; assay type: in vivo; details: male Lewis rats
Description: FIG. 7. […] Data in FIGS. 3, 4, and 6 are from the same rats. […] Oral (left) and IV (right) doses were administered 1×48 hours before blood withdrawal.

[2] = system: IL-2, IL-15, IL-6; details: oral 3 mg/kg, 48 hours
Description: Blood was drawn before drug treatment and 48 hours post-treatment for CBC analysis and flow cytometry to determine lymphocyte and other blood cell populations. Serum was analyzed for cytokine levels.

[3] = system: germinal centers; experiment: Germinal centers in mouse spleen, FITC-PNA immunofluorescence; assay type: in vivo; details: HED
Description: FIG. 2. […] A graph of column plots of average Germinal Center staining intensity measured using immunofluorescent staining of fresh thick spleen sections stained with FITC-PNA is shown. Immunofluorescent intensity was calculated using thresholding and MetaMorph Image Analysis. Columns are average plus SEM.
The spleens were removed, weighed wet, and then fixed in 10% formalin. Subsequently the spleens were sectioned via proprietary methods and then incubated with FITC-PNA at 4 degC for 24 hours, washed, placed on slides and immunofluorescent images were captured. Metamorph software was used to quantify the immunofluorescent signal.

[4] = system: peripheral blood lymphocytes; experiment: Mouse complete blood count and flow cytometry 24-48 hours after oral dexamethasone
Description: CD3 and CD4 positive lymphocytes. […] Relative counts/ul=flow cytometry and complete blood count combined. […] Doses are shown as HED (human equivalent dose). A one-way ANOVA followed by Tukey's test was incorporated to determine statistical significance between the treatment groups; * p<0.05, ** p<0.01, *** p<0.001.
Treg lymphocytes were identified by being CD3+CD4+CD25+FoxP3+. Relative counts/ul=flow cytometry and complete blood counts combined. […] Doses are shown as HED (human equivalent dose). A one-way ANOVA followed by post-hoc Tukey's test was incorporated to determine statistical significance between the treatment groups; * p<0.05, ** p<0.01.
NK cells were identified by being CD3−CD49b+. B lymphocytes were identified by being CD3−B220+. Relative counts/ul=flow cytometry and complete blood counts combined. […] Doses are shown as HED (human equivalent dose). A one-way ANOVA followed by post-hoc Tukey's test was incorporated to determine statistical significance between the treatment groups; * p<0.05, ** p<0.01; *** p<0.001.
Cells/ul=absolute numbers obtained from complete blood counts (CBC). […] Doses are shown as HED (human equivalent dose).
Cells/ul=absolute numbers obtained from CBC. […] Doses are shown as HED (human equivalent dose).

[5] = Double-blind controlled horse trial, adverse effects; assay type: in vivo; details: acute high dose; out to 70 days
[6] = system: peripheral blood lymphocytes
Description: Each patient's pre-treatment values are connected to post-treatment values by a connecting line.
Each patient's pre-treatment values are connected to post-treatment values by a connecting line. […] HSCs are identified by being CD34+CD38−.
Blood was drawn before drug treatment and 48 hours post-treatment for CBC analysis and flow cytometry to determine lymphocyte and other blood cell populations. […] For one patient, pre-treatment CBCs were not drawn and thus normalized flow cytometry data is shown for only 3 patients.

[7] = system: peripheral blood lymphocytes; experiment: Repeat of Hinrichs dexamethasone dosing, peripheral blood lymphocytes by flow cytometry; assay type: in vivo; parameters: reduction of Tregs / reduction of NK cells / reduction of CD3+ T lymphocytes / reduction of CD3+CD4+ T lymphocytes / reduction of CD3+CD8 T lymphocytes: concentration or dose not given beside the values
[8] = system: hematopoietic stem cells; experiment: Live hematopoietic stem cells in naive mice 48 hours after treatment; details: high doses
[9] = system: A20 B cell lymphoma; experiment: A20 B cell lymphoma mouse model, tumor volume; assay type: in vivo; details: 15 mg/kg HED on days 7, 10, 18, 23, 24, 28, 35, 42
Description: (§1) In the present study, mice were housed, inoculated and treated in the same way as reported in the Bascus et al. (2016) study. […] Tumor volume (mm^3) was measured every 2-3 days.

[10] = system: multiple myeloma and other cancer cell lines; experiment: Direct tumor killing of cancer cell lines; assay type: cell-based; details: about 1.6 mg/kg HED in a 48 hour period; maintained but not increased up to about 12 mg/kg HED
[11] = Clinical chemistries in mice after acute oral doses; assay type: in vivo, mouse
[12] = A20 B cell lymphoma mouse model, toxicity (body weight, deaths); details: 15 mg/kg dexamethasone base HED
Description: as §1

[13] = mouse, in vivo
Description: To another group of mice Cy was administered IP at 166 mg/kg (HED 500 mg/m2) on day −5 and day −4 and Fludarabine 10 mg/kg (HED 30 mg/m2) on days −5, −4, −3, −2.

[14] = mouse, in vivo, 15 mg/kg
[15] = system: marginal zone and germinal centers of the spleen; experiment: Rat spleen marginal zone width (H&E) and germinal center area (BCL-6 staining); assay type: in vivo; details: IV or PO, 48 hours
Description: Column plots of the area per spleen of BCL-6 staining of 5 micron fixed spleen sections as a measure of germinal center numbers given as average per section are shown.
Formalin-fixed spleens were cross-sectioned in 5 pieces, trimmed and embedded in paraffin, sectioned and stained with hematoxylin and eosin (H&E). Measurements of the periarteriolar lymphoid sheath (PAL) diameter and the width of the marginal zone (MZ) in areas of white pulp that had PAL with the greatest diameter were measured using an ocular micrometer. BCL-6 immunohistochemical staining in rat spleens was evaluated to determine GC area using automated image analysis methods.

[16] = A20 tumor bearing mice, cell counts by CBC analyzer and chemistry (Table 2); details: A20 tumor bearing male mice, 15 mg/kg HED on day 28, animals 12 and 7
[17] = HED, cited from earlier work
[18] = system: spleen weights, germinal centers; details: mice, po daily for 13 weeks; cited from earlier work
[19] = system: B lymphocytes; experiment: Treatment of patients with autoimmune diseases (paper examples 5 and 9); assay type: in vivo, human; details: acute high dose, patient with an autoimmune disease
Description: Acute high dose prednisone doses range from about 19 mg/kg to about 150 mg/kg, with doses between about 56 mg/kg and about 112 mg/kg being preferred, with a repeat (second) administration of this dose 24 hours later and an optional repeat (third) administration of this dose 48-72 hours after the initial dose.

[20] = in vivo; cited from earlier work
[21] = human, in vivo; cited from earlier work
[22] = oral, 12 mg/kg HED group vs placebo, 24-48 hours

C[C@@H]1C[C@H]2[C@@H]3CCC4=CC(=O)C=C[C@]4(C)[C@@]3(F)[C@@H](O)C[C@]2(C)[C@@]1(O)C(=O)CO [dexamethasone]
RBCs, platelets, Hct, HgB [1]: not affected
neutrophil number ([1]; all doses): increased by all doses
IL-6 level [2]: not elevated in any patient
patients with increased serum IL-2 and/or IL-15 levels [2]: 100%
acute dose from which germinal centers are reduced [3]: ≥ 6 mg/kg
acute dose from which germinal centers are reduced ([3]; listed as Dexamethasone): ≥ 3 mg/kg
reduction in CD4+, CD8+, Tregs and B cells population ([4]; naive mouse and rat models, high doses, 48 hours after administration, preliminary): ~98%
HED dose giving almost complete lymphoablation ([4]; normal mice, oral): greater than 12 mg/kg
absolute neutrophils ([4]; oral HED 3-17.5 mg/kg, 24-48 hours): does not affect
absolute RBCs and platelets ([4]; oral HED 3-17.5 mg/kg, 48 hours): does not affect
reduction in B lymphocytes (CD3−B220+) [4, 22]: 83%
reduction in CD3+ T lymphocytes [4, 22]: 65%
reduction in CD4+ T lymphocytes [4, 22]: 75%
reduction in CD8+ T lymphocytes [4, 22]: 56%
reduction in NK cells (CD3−CD49b+) [4, 22]: 87%
reduction in Tregs (CD3+CD4+CD25+FoxP3+) [4, 22]: 78%
reduction in absolute lymphocyte count ([4]; oral, C57B1 male mice vs placebo, 24 to 48 hours, dose group not stated): 84%
adverse side effects [5]: no adverse side effects were observed
patients showing lymphocytosis ([6]; 3 mg/kg HED): 50%
hematopoietic stem cells (CD34+CD38−) ([6]; human, in vivo, po, 3 mg/kg): spared
CD3+ T lymphocytes, live events ([7]; intraperitoneal 10 mg/kg (HED 0.81 mg/kg) on day −6, −4, −2, vehicle 3370): 2441 live events
CD3-CD19+ B lymphocytes in the peripheral blood, live events by flow cytometry ([7]; intraperitoneal 10 mg/kg (HED 0.81 mg/kg) on day −6, −4, −2, vehicle control 10680): 3733 live events
reduction of B lymphocytes ([7]; intraperitoneal 10 mg/kg (HED 0.81 mg/kg) on day −6, −4, −2, vs vehicle, significant): 65%
reduction of CD3+ T lymphocytes ([7]; same dosing, non-significant): 33%
reduction of CD3+CD4+ T lymphocytes ([7]; same dosing, non-significant): 50%
reduction of CD3+CD8 T lymphocytes ([7]; same dosing, non-significant): 3%
reduction of NK cells ([7]; same dosing, non-significant): 17%
reduction of Tregs ([7]; same dosing, non-significant): 65%
CD3+CD4+CD25+FoxP3+ Tregs, live events ([7]; same dosing, vehicle 198): 70 live events
CD3+CD8 T lymphocytes, live events ([7]; same dosing, vehicle 1318): 1277 live events
CD3+CD4+ T lymphocytes, live events ([7]; same dosing, vehicle 1779): 902 live events
number of live hematopoietic stem cells [8]: did not significantly alter
efficacy in terms of tumor volume control compared with CHOP [9]: greater than 1 cycle of CHOP, but not quite as effective as 2 cycles of CHOP
direct tumor killing [10]: about 50%
clinical chemistry levels including cholesterol and total protein ([11]; acute oral doses, HED 6-12 mg/kg): do not elevate clinical chemistry levels out of normal range
glucose level ([11]; after acute high dose): not elevated over the normal range
mice that died from the treatment [12]: no mice died
body weight as a general measure of toxicity [13]: did not impact body weight
CRE [14]: 0.5
GGT [14]: 0
NRBC [14]: 0*
dose of maximal inhibition of germinal center area [15]: 12.9 mg/kg HED
dose of maximal inhibition of marginal zone [15]: 12.9 mg/kg HED
BAS % [16]: 0%
EOS % [16]: 0%
Meta % [16]: 0%
BASCT ([16]; 15 mg/kg): 38 and 57
CA ([16]; 15 mg/kg): 9.9 and 10.0
EOSCT ([16]; 15 mg/kg): 158 and 92
LYM % ([16]; 15 mg/kg): 30% and 53%
MON % ([16]; 15 mg/kg): 0% and 3%
NEU % ([16]; 15 mg/kg): 70% and 44%
NEUCT ([16]; 15 mg/kg): 550 and 280
TP ([16]; 15 mg/kg): 5.5 and 5.4
WBC ([16]; 15 mg/kg): 860 and 1150
lowest lethal dose ([17]; healthy mice): 114 mg/kg
lowest lethal dose ([17]; tumor bearing mice): 43 mg/kg

C[C@]12C=CC(=O)C=C1CC[C@@H]1[C@@H]2C(=O)C[C@@]2(C)[C@H]1CC[C@]2(O)C(=O)CO [prednisone]
dose above which spleen weights or germinal centers are significantly impacted [18]: over 2.5 mg/kg
reduction of B lymphocyte numbers [19]: greater than 90%
reduction of memory B cell populations [19]: greater than 90%
biologic half-life [20]: about 20 hours

alemtuzumab: anti-CD52 lymphocyte depletional agent
patients who developed (primarily thyroid) autoimmunity [21]: two thirds
